According to patent US20260169011A1, “METHODS AND COMPOSITIONS FOR PROVIDING CUSTOMIZED NUTRITIONAL SUPPLEMENTS” (Vibrant Holdings LLC, priority 2023, published 2026):
Like-named read-outs stand apart in the source and are kept apart here.

What was measured:
[1] = cited from earlier work
[2] = Vibrant Absorption Factor (VAF): difference of post- and pre-supplementation nutrient values divided by ATB dosage
Source text: Improvement in nutrition can be determined by comparing the nutrient values in serum, RBC, and WBCs post-nutritional supplementation to the nutrient values in serum, RBC, and WBCs pre-nutritional supplementation. Based on the improvement, the change in the nutrient levels can be attributed to the per milligram dosage of the supplemented nutrients. The assessed nutritional change is the “Vibrant Absorption factor (VAF (see Equation (1) below). The VAF can be used to determine the subject's utilization of the supplemented nutrients, as determined by the difference in extracellular and intracellular nutrient values before and after supplementation. Based on the subject's utility or absorption of the nutrients, the dosage amount of the nutrient needed to be supplemented or increased to effect change of the subject's nutrient values into the optimum nutrient zone can be assessed. In various embodiments, the VAF is determined by administering a pre-determined formulation, referred to herein as the Absorption Testing Blend.
Next, the ATB is administered to the individual for a predefined period at step 320a, after which nutrient levels and the genetic nutrient profile are re-evaluated, to obtain the post-supplementation biomarker values at step 330.
This includes determining the VAF based on the difference between post- and pre-supplementation biomarker values, which is divided by the ATB dosage.
The assessed change is called the VAF. The VAF is used to understand how the individual's body is utilizing these nutrients, depending on the difference in extracellular and intracellular nutrient values before and after supplementation. Based on the body's utility or absorption of the nutrients, the amount of nutrients needed to be supplemented to alter the individual's nutrient values into the optimum nutrient zone is understood. The VAF calculations help in determining the appropriate dosages of nutrients required in the ‘customized blend.’

[3] = NutriPro test: serum, RBC and WBC nutrient values before and after ATB / customized blend; type: in vivo, human; conditions: for Follow-up Nutrient Level / Actual Nutrient Value (ANV): person three; for Follow-up Nutrient Level / Follow-up Biomarker level: after customized blend; for Actual Nutrient Value (ANV): before customized blend; for Post-test biomarker level: after ATB; for Pre-test biomarker level: before ATB
Source text: The method for providing a nutritional supplement for a subject as disclosed herein is based on a comprehensive panel that assesses intracellular and extracellular levels of at least or up to 41 nutrients. […] Blood analysis using the method disclosed herein tests for nutrient levels in serum, red blood cells (RBCs), and white blood cells (WBCs). Additional genetic testing can assess patients' predispositions toward nutrient deficiencies. Based on the blood and genetic analysis results, a subsequent supplementation diet comprising supplements and food sources can be designed and implemented. The subject can be a human subject.
In some embodiments, the detection method is mass spectrometry.
The ‘NutriPro’ test is used to assess serum (extracellular), RBC, and WBC (intracellular) nutrient values along with genetic testing for any predispositions with could be affecting nutrient values in the body. If required, additional tests such as the gut zoomer, cardiovascular health, thyroid test, kidney function test, liver function test, etc, are carried out. FIG. 1 provides a schematic diagram of the process of the NutriPro test from the individual subject to the creation of customized nutritional blends.
The ATB is given to the individual for nutritional supplementation, and blood testing for nutrients in serum, RBC, and WBC is carried out after 3 or 6 months.
The assessed change is called the VAF.
After testing, the individual takes the ATB or the customized blend for the amount of time indicated.

[4] = person one, cells, unit not given

In the case of `C[N+](C)(C)CCO` [Choline], the UTL ([1]; upper tolerable limit) is listed as 3,500 mg/day.
With `CC1=C(C/C=C(\C)CCC[C@H](C)CCC[C@H](C)CCCC(C)C)C(=O)c2ccccc2C1=O` [Vitamin K1] the VAF ([2]; person two, serum) was 0.081, the “Follow-up Nutrient Level” value ([3]; serum) was 12.3 ng/mL and the “Actual Nutrient Value (ANV)” value ([3]; serum) was 0.07 ng/mL. For the same compound, the Post-test biomarker level ([3]; person two, serum) was 0.0017 µg/mL, the “Follow-up Biomarker level” value ([3]; person two, serum) was 0.0124 µg/mL and the Pre-test biomarker level ([3]; person two, serum) was 8e-05 µg/mL.
In the case of `[Mn]` [Manganese, Mn 55], the UTL ([1]; upper tolerable limit) is listed as 11 mg/day.
`COC1=C(OC)C(=O)C(C/C=C(\C)CC/C=C(\C)CC/C=C(\C)CC/C=C(\C)CC/C=C(\C)CC/C=C(\C)CC/C=C(\C)CC/C=C(\C)CC/C=C(\C)CCC=C(C)C)=C(C)C1=O` [Coenzyme 10] showed a VAF ([2]; person one, serum) of 0.024, a VAF ([2]; person two, serum) of 0.22 and a Post-test biomarker level ([3]; person one, serum) of 0.32 µg/mL. The “Follow-up Biomarker level” value ([3]; person one, serum) was 1.8 µg/mL, the Pre-test biomarker level ([3]; person one, serum) was 0.2 µg/mL and the Post-test biomarker level ([3]; person two, serum) was 1.2 µg/mL. The “Follow-up Biomarker level” value ([3]; person two, serum) was 1.88 µg/mL, the Pre-test biomarker level ([3]; person two, serum) was 0.1 µg/mL and the UTL ([1]; Table 18, person one) was 1,200 mg/day. For the same compound, the UTL ([1]; Table 19, person two) was 1,200 mg/day.
For `CC[C@H](C)[C@H](N)C(=O)O` [Isoleucine], the VAF ([2]; person two, serum) was 8.514, the “Follow-up Nutrient Level” value ([3]; serum) was 144 nmol/mL and the “Actual Nutrient Value (ANV)” value ([3]; serum) was 26.2 nmol/mL. The Post-test biomarker level ([3]; person two, serum) was 44 nmol/mL, the “Follow-up Biomarker level” value ([3]; person two, serum) was 149 nmol/mL and the Pre-test biomarker level ([3]; person two, serum) was 14.2 nmol/mL.
In the case of `[Fe]` [Iron, Fe 56], the UTL ([1]; upper tolerable limit) is listed as 45 mg/day.
In the case of `CC(C)[C@H](N)C(=O)O` [Valine], the “Follow-up Nutrient Level” value ([3]; serum) is reported as 332 nmol/mL and the “Actual Nutrient Value (ANV)” value ([3]; serum) is reported as 26 nmol/mL.
Vitamin B12 gave a VAF ([2]; person one, cells) of 3.75, a VAF ([2]; person one, serum) of 250 and a VAF ([2]; person two, serum) of 132.5. For the same compound, the Post-test biomarker level [3, 4] was 1.7, the “Follow-up Biomarker level” value [3, 4] was 10.3 and the Pre-test biomarker level [3, 4] was 0.2. The Post-test biomarker level ([3]; person one, serum) was 0.000205 µg/mL, the “Follow-up Biomarker level” value ([3]; person one, serum) was 0.00117 µg/mL and the Pre-test biomarker level ([3]; person one, serum) was 0.000105 µg/mL. For the same compound, the Post-test biomarker level ([3]; person two, serum) was 0.000147 µg/mL, the “Follow-up Biomarker level” value ([3]; person two, serum) was 0.001122 µg/mL and the Pre-test biomarker level ([3]; person two, serum) was 9.4e-05 µg/mL.
In the case of `[Mg]` [Magnesium], the VAF ([2]; person one, serum) is reported as 0.012, the Post-test biomarker level ([3]; person one, serum) is reported as 17 µg/mL and the “Follow-up Biomarker level” value ([3]; person one, serum) is reported as 25.2 µg/mL. The Pre-test biomarker level ([3]; person one, serum) was 5 µg/mL and the UTL ([1]; Table 18, person one) was 350 mg/day.
For `CC(C)[C@H](N)C(=O)O` [L-Valine], the VAF ([2]; person one, serum) was 8.75, the Post-test biomarker level ([3]; person one, serum) was 4.7e+10 nmol/mL and the “Follow-up Biomarker level” value ([3]; person one, serum) was 322 nmol/mL. The Pre-test biomarker level ([3]; person one, serum) was 12 nmol/mL.
In the case of Vitamin A, the VAF ([2]; person two, cells) is reported as 0.0019, the VAF ([2]; person two, serum) is reported as 0.025 and the “Follow-up Nutrient Level” value ([3]; cells) is reported as 14.4 pg/MM WBC. For the same compound, the “Actual Nutrient Value (ANV)” value ([3]; cells) was 0.4 pg/MM WBC, the “Follow-up Nutrient Level” value ([3]; serum) was 1280 ng/mL and the “Actual Nutrient Value (ANV)” value ([3]; serum) was 350 ng/mL. The Post-test biomarker level ([3]; person two, cells) was 2.1 pg/MM WBC, the “Follow-up Biomarker level” value ([3]; person two, cells) was 14.5 pg/MM WBC and the Pre-test biomarker level ([3]; person two, cells) was 0.2 pg/MM WBC. The Post-test biomarker level ([3]; person two, serum) was 0.47 µg/mL, the “Follow-up Biomarker level” value ([3]; person two, serum) was 1.29 µg/mL and the Pre-test biomarker level ([3]; person two, serum) was 0.22 µg/mL. The UTL ([1]; Table 19, person two) was 10,000 IU/day and the UTL ([1]; Table 20, person three) was 10,000 IU/day.
In the case of `[24Mg]` [Magnesium, Mg 24], the UTL ([1]; upper tolerable limit) is given as 350 mg/day.
For `COC1=C(OC)C(=O)C(C/C=C(\C)CC/C=C(\C)CC/C=C(\C)CC/C=C(\C)CC/C=C(\C)CC/C=C(\C)CC/C=C(\C)CC/C=C(\C)CC/C=C(\C)CCC=C(C)C)=C(C)C1=O` [Coenzyme Q10], the “Follow-up Nutrient Level” value ([3]; serum) is listed as 1990 ng/mL, the “Actual Nutrient Value (ANV)” value ([3]; serum) is listed as 100 ng/mL and the UTL ([1]; Table 20, person three) is listed as 1,200 mg/day.
For `[Cu]` [Copper, Cu 63], the UTL ([1]; upper tolerable limit) is given as 10 mg/day.
For `Cc1cc2nc3c(=O)[nH]c(=O)nc-3n(C[C@H](O)[C@H](O)[C@H](O)CO)c2cc1C` [Vitamin B2], the “Follow-up Nutrient Level” value ([3]; serum) was 231 ng/mL and the “Actual Nutrient Value (ANV)” value ([3]; serum) was 5.5 ng/mL.
For `[76Se]` [Selenium, Se 76], the UTL ([1]; upper tolerable limit) is given as 0.4 mg/day.
For `CC1=C(/C=C/C(C)=C/C=C/C(C)=C/CO)C(C)(C)CCC1` [Vitamin A (Retinol)], the UTL ([1]; upper tolerable limit) is given as 10,000 IU/day.
With `CC/C=C\C/C=C\C/C=C\C/C=C\C/C=C\CCCCCC(=O)O` [DPA, docosapentaenoic acid] the “Follow-up Nutrient Level” value ([3]; cells, unit not given) was 1.2 and the “Actual Nutrient Value (ANV)” value ([3]; cells, unit not given) was 0.46.
With `C[N+](C)(C)CC(O)CC(=O)[O-]` (stereo not drawn) [Carnitine] the VAF ([2]; person one, serum) was 1.08, the Post-test biomarker level ([3]; person one, serum) was 14.9 nmol/mL and the “Follow-up Biomarker level” value ([3]; person one, serum) was 42.5 nmol/mL. The Pre-test biomarker level ([3]; person one, serum) was 9.5 nmol/mL, the “Follow-up Nutrient Level” value ([3]; level: Questionnaire) was 43.2 nmol/mL and the “Actual Nutrient Value (ANV)” value ([3]; level: Questionnaire) was 24 nmol/mL. The UTL ([1]; Table 18, person one) was 2000 mg/day and the UTL ([1]; Table 20, person three) was 2000 mg/day.
